Like-named read-outs stand apart in the source and are kept apart here.
Legend:
THP-1 macrophages = experiment: Effect of compounds on host cell viability (MTT); type: cell-based
Method in brief: (§1)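 Viability was read as MTT reduction: 2 h with 0.5 mg/mL, formazan dissolved in isopropanol, A560 with 670 nm background subtracted. The macrophages were PMA-differentiated THP-1 cells (150 nM, 72 h), treated 24 h at 1–50 μM or, for some compounds, 72 h at 1–300 μM.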

[1] = Effect of compounds on host cell viability (MTT); type: cell-based; conditions: human
Method in brief: as §1

[2] = test system: intracellular L. donovani in WT and Lys K/O BMDMs; experiment: 197 target validation: Giemsa staining in BMDMs from wild-type and lysozyme knockout mice; type: cell-based, Leishmania donovani; conditions: WT vs Lys K/O BMDMs
Description: B6.129P2-Lyz2^tm1(cre)Ifo/J mice[23] (stock #004781, herein termed ‘Lys K/O’) were obtained from Jackson Laboratory. This strain has a nuclear-localized Cre recombinase inserted into the first coding ATG of the lysozyme 2 gene (Lyz2) which eliminates endogenous Lyz2 gene function. Wildtype C57BL6/J mice (stock #000664) were obtained as a control.
Bone marrow derived macrophages (BMDMs) were isolated from both mice and cultured as described above in “Image-based Evaluation of Intracellular Anti-Leishmanial Activity”. BMDMs were seeded onto glass cover slips, infected with LV82 L. donovani at a multiplicity of infection of 1:10. Cells were washed to remove extracellular promastigotes and treated with compounds (197, amphotericin B) for a 72-hour incubation. BMDM cells were then washed with phosphate buffered saline, fixed with ice-cold methanol, and stained with Giemsa (5% v/v in water). The cover slips with stained cells are mounted onto glass slides and imaged on EVOS XL (100X, Thermo Fisher Scientific). Leishmania amastigotes per 100 macrophages were determined in a blinded manner.

[3] = test system: intracellular L. donovani amastigotes; experiment: Image-based (Giemsa staining) evaluation of intracellular anti-leishmanial activity in bone marrow derived macrophages; type: cell-based, Leishmania donovani; conditions: Leishmania donovani, Macrophage
Protocol: Bone marrow derived macrophages (BMDMs) were isolated from BALB/c mice and cultured as previously described. […] Completely differentiated BMDMs are obtained after 7 days of culture with media change every 2 days. Harvested cells were seeded onto 10 mm glass cover slips at 5 x 10^5 cells/ well of a 24 well plate in DMEM media (without LCM) and allowed to adhere overnight. […] After infection, cells were washed three times with fresh media to remove extracellular promastigotes and treated with compounds for a 72-hour incubation. BMDM cells were then washed with phosphate buffered saline, fixed with ice-cold methanol, and stained with Giemsa (5% v/v in water). The cover slips with stained cells are mounted onto glass slides and imaged on EVOS XL (100X, Thermo Fisher Scientific). Leishmania amastigotes per 100 macrophages were determined in a blinded manner.

O=C(CNCc1cccc(F)c1)Nc1ccc(-n2cc(C(F)(F)F)nc2-c2ccc(-c3ccc(C(F)(F)F)cc3)cc2)cc1 [Compound 197]
CC50 (THP-1 macrophages): > 300 µM
reduction in macrophage viability (THP-1 macrophages; 72hr incubation up to 300μM): Neither compound had any reduction
CC50 at 24 h [1]: > 50 µM
CC50 at 72 h [1]: > 300 µM
anti-leishmanial activity in Lys K/O BMDMs [2]: notably decreased
IC50 ([3]; 72 h, Giemsa staining, 72-hour incubation, read-out: Intracellular L. donovani amastigotes IC50): 1.1 µM
IC50 ([3]; Giemsa staining (Table 3), read-out: L. donovani Intracellular amastigotes IC50): < 2 µM

Reference: doi:10.1101/2025.11.04.686469, “Discovery of Host-Directed Small Molecules with Broad Anti-Leishmanial Efficacy” (bioRxiv, 2025)
